From patent US8106048B2, “Heterocyclic NF-κB inhibitors” (4SC AG, priority 2004, dated 2012) come the findings set out here.

This assay has as its system A549-NF-κB-SEAP reporter cells. The experiment in a line: Inhibition of NF-κB-induced inflammation: […] NINA Instant Assay, TNF-α stimulated SEAP reporter. Type of assay: cell-based. To be noted: % inhibition classes. An excerpt:
For the determination of anti-inflammatory activity of the compounds the […]® NINA Instant Assay from Cell Culture Service GmBH was used. This assay is based on […] recombinant A549-NF-κB-SEAP reporter cells preceded in 96-well flat bottom plates. As the transfected reportergen for SEAP (secreted embryonic alkaline phosphatase) is under transcriptional control of a NF-κB-responsive element, the expression of this reporter is activated upon stimulation with TNF-α. SEAP secretion into the culture supernatant can be detected by the chemiluminescent substrate CSPD®. Test compounds that inhibit the NF-κB activation show reduced SEAP activity and reduced luminescent readout.
Following 18 h of reactivation at 37° C., 5% CO2 and 90% relative humidity, the cells were incubated with 0.01 up to 100 μM of test compound for 4.5 h before stimulation with 2 ng/ml TNF-α. After stimulation with TNF-α for 22 h endogenous phosphatases were inactivated and CSPD® substrate was supplied for 40 min. SEAP activity then was quantified by measuring luminescence as relative light units (RLU) using a Tecan Ultra reader. Each data point was recorded in quadruplicates and EC50 values were calculated via fitting function and the Microsoft Excel Solver.

Take `O=C(Nc1ccccc1OC(F)(F)F)N1CCC(c2nc(C(=O)N3CCN(c4cccc(C(F)(F)F)c4)CC3)cs2)CC1` [compound 79]: the “Biological activity (inhibition in the NF-κB inflammation assay)” value is reported as “+++ (“+++” stands for 90-100% inhibition)”. The entry for `COc1cccc(NC(=O)N2CCC(c3nc(C(=O)N4CCN(c5cccc(C(F)(F)F)c5)CC4)cs3)CC2)c1` [compound 80] is “+ (“+” stands for 50-80% inhibition)”. As for `COc1cc(NC(=O)N2CCC(c3nc(C(=O)N4CCN(c5cccc(C(F)(F)F)c5)CC4)cs3)CC2)cc(OC)c1OC` [compound 81], the “Biological activity (inhibition in the NF-κB inflammation assay)” value is listed as “++ (“++” means 80-90%)”. For `NC(=Nc1nc2ccccc2[nH]1)NC(=O)c1csc(NC(=O)c2ccccc2OC(F)(F)F)n1` [compound 82] the value was “+++ (“+++” stands for 90-100% inhibition)”. For `Nc1cc(=O)[nH]c(NC(=O)c2csc(C3CCN(C(=O)c4ccccc4OC(F)(F)F)CC3)n2)n1` [compound 83] the value was “+ (“+” stands for 50-80% inhibition)”. For `O=C(Nc1nnc(Cc2ccccc2)[nH]1)c1csc(C2CCN(C(=O)c3ccccc3OC(F)(F)F)CC2)n1` [compound 84], the “Biological activity (inhibition in the NF-κB inflammation assay)” value is on record as “+ (“+” stands for 50-80% inhibition)”. On to `CN(C)c1nc(NC(=O)c2csc(C3CCN(C(=O)c4ccccc4OC(F)(F)F)CC3)n2)cc(=O)[nH]1` [compound 85], for which the “Biological activity (inhibition in the NF-κB inflammation assay)” value was “+ (“+” stands for 50-80% inhibition)”. Regarding `Cc1cc(=O)[nH]c(NC(=O)c2csc(C3CCN(C(=O)c4ccccc4OC(F)(F)F)CC3)n2)n1` [compound 86], the “Biological activity (inhibition in the NF-κB inflammation assay)” value is “+ (“+” stands for 50-80% inhibition)”.

For the compound `CN(C)c1ncnc(NC(=O)c2csc(C3CCN(C(=O)c4ccccc4OC(F)(F)F)CC3)n2)n1` [compound 88], the “Biological activity (inhibition in the NF-κB inflammation assay)” value was “+ (“+” stands for 50-80% inhibition)”. Consider `Nc1nc(NC(=O)c2csc(C3CCN(C(=O)c4ccccc4OC(F)(F)F)CC3)n2)n[nH]1` [compound 89], for which the “Biological activity (inhibition in the NF-κB inflammation assay)” value is “+ (“+” stands for 50-80% inhibition)”. The entry for `N#CNC(=N)NC(=O)c1csc(C2CCN(C(=O)c3ccccc3OC(F)(F)F)CC2)n1` [compound 90] is “+ (“+” stands for 50-80% inhibition)”; for `N=C(NC(=O)c1csc(C2CCN(C(=O)C(c3ccccc3)c3ccccc3)CC2)n1)Nc1nc2ccccc2[nH]1` [compound 93] it is “+ (“+” stands for 50-80% inhibition)”; for `N=C(NC(=O)c1csc(C2CCNCC2)n1)Nc1nc2ccccc2[nH]1` [compound 94] it is “+ (“+” stands for 50-80% inhibition)”.

For the compound `CC(C)(C)OC(=O)N1CCC(c2nc(C(=O)NC(=N)Nc3nc4ccccc4[nH]3)cs2)CC1` [compound 95], the “Biological activity (inhibition in the NF-κB inflammation assay)” value is recorded as “+++ (“+++” stands for 90-100% inhibition)”. The entry for `O=C(NCC1CCN(c2nc(C(=O)N3CCN(c4cccc(C(F)(F)F)c4)CC3)cs2)CC1)c1ccc(C(F)(F)F)c(F)c1` [compound 99] is “+ (“+” stands for 50-80% inhibition)”. In the case of `O=C(CCC1CCCC1)NCC1CCN(c2nc(C(=O)N3CCN(c4cccc(C(F)(F)F)c4)CC3)cs2)CC1` [compound 100], the “Biological activity (inhibition in the NF-κB inflammation assay)” value is reported as “+ (“+” stands for 50-80% inhibition)”. `O=C(NCC1CCN(c2nc(C(=O)N3CCN(c4cccc(C(F)(F)F)c4)CC3)cs2)CC1)c1ccccc1OC(F)(F)F` [compound 101]: the “Biological activity (inhibition in the NF-κB inflammation assay)” value was “+ (“+” stands for 50-80% inhibition)”. For `N#Cc1ccc(C(=O)NCC2CCN(c3nc(C(=O)N4CCN(c5cccc(C(F)(F)F)c5)CC4)cs3)CC2)cc1` [compound 102] the value was “+ (“+” stands for 50-80% inhibition)”. For `Cc1sc(C2CCN(C(=O)c3ccccc3OC(F)(F)F)CC2)nc1CC(=O)N1CCN(c2cccc(C(F)(F)F)c2)CC1` [compound 103] the value was “++ (“++” means 80-90%)”; for `O=C(Nc1nc2ccccc2[nH]1)c1csc(C2CCN(C(=O)c3ccccc3OC(F)(F)F)CC2)n1` [compound 105], “+ (“+” stands for 50-80% inhibition)”.

Regarding `Cc1cc2nc(NC(=O)Cc3nc(C4CCN(C(=O)c5ccccc5OC(F)(F)F)CC4)sc3C)[nH]c2cc1C` [compound 106], the “Biological activity (inhibition in the NF-κB inflammation assay)” value is “+ (“+” stands for 50-80% inhibition)”. `O=C(c1csc(C2CCN(Cc3ccncc3)CC2)n1)N1CCN(c2cccc(C(F)(F)F)c2)CC1` [compound 107]: the “Biological activity (inhibition in the NF-κB inflammation assay)” value was “+ (“+” stands for 50-80% inhibition)”. For `O=C(c1csc(C2CCN(Cc3ccccc3OC(F)(F)F)CC2)n1)N1CCN(c2cccc(C(F)(F)F)c2)CC1` [compound 109] the value was “+ (“+” stands for 50-80% inhibition)”; for `O=C(c1csc(C2CCN(C(=O)c3ccccc3OC(F)(F)F)CC2)n1)N(Cc1ccc(Cl)cc1)Cc1ccc(Cl)cc1` [compound 110], “+ (“+” stands for 50-80% inhibition)”. Regarding `O=C(c1csc(C2CCN(C(=O)c3ccccc3OC(F)(F)F)CC2)n1)N1CCC(n2nnc3ccccc32)CC1` [compound 111], the “Biological activity (inhibition in the NF-κB inflammation assay)” value is reported as “+ (“+” stands for 50-80% inhibition)”. The entry for `N#Cc1ccc(N2CCC(c3nc(C(=O)N4CCN(c5cccc(C(F)(F)F)c5)CC4)cs3)CC2)cc1` [compound 112] is “+ (“+” stands for 50-80% inhibition)”; for `O=C(O)N1CCC(c2nc(C(=O)N3CCN(c4cccc(C(F)(F)F)c4)CC3)cs2)CC1` [compound 113] it is “+ (“+” stands for 50-80% inhibition)”; for `O=C(c1csc(C2CCN(Cc3cccc(OC(F)(F)F)c3)CC2)n1)N1CCN(c2cccc(C(F)(F)F)c2)CC1` [compound 115] it is “++ (“++” means 80-90%)”.

In the case of `COc1ccc(OC)c(N2CCC(c3nc(C(=O)N4CCN(c5cccc(C(F)(F)F)c5)CC4)cs3)CC2)c1` [compound 116], the “Biological activity (inhibition in the NF-κB inflammation assay)” value was “+ (“+” stands for 50-80% inhibition)”. Turning to `CS(=O)(=O)c1ccc(N2CCC(c3nc(C(=O)N4CCN(c5cccc(C(F)(F)F)c5)CC4)cs3)CC2)cc1` [compound 117], the “Biological activity (inhibition in the NF-κB inflammation assay)” value is reported as “+ (“+” stands for 50-80% inhibition)”. Take `O=C(c1csc(C2CCN(c3cc(C(F)(F)F)ccn3)CC2)n1)N1CCN(c2cccc(C(F)(F)F)c2)CC1` [compound 118]: the “Biological activity (inhibition in the NF-κB inflammation assay)” value is on record as “+ (“+” stands for 50-80% inhibition)”. For `O=C(c1csc(C2CCN(c3ccccc3)CC2)n1)N1CCN(c2cccc(C(F)(F)F)c2)CC1` [compound 119] the value was “+ (“+” stands for 50-80% inhibition)”; for `COc1nc(OC)nc(N2CCN(C(=O)c3csc(C4CCN(Cc5ccccc5)CC4)n3)CC2)n1` [compound 120], “+ (“+” stands for 50-80% inhibition)”; for `COc1nc(OC)nc(N2CCN(C(=O)c3csc(C4CCN(Cc5ccc(Br)cc5)CC4)n3)CC2)n1` [compound 121], “+ (“+” stands for 50-80% inhibition)”.

On to `O=C(c1csc(C2CCN(c3ccccn3)CC2)n1)N1CCN(c2cccc(C(F)(F)F)c2)CC1` [compound 123], for which the “Biological activity (inhibition in the NF-κB inflammation assay)” value was “++ (“++” means 80-90%)”. The entry for `CSc1nccc(N2CCN(C(=O)c3csc(C4CCN(C(=O)c5ccccc5OC(F)(F)F)CC4)n3)CC2)n1` [compound 124] is “+ (“+” stands for 50-80% inhibition)”; for `CC(C)(C)OC(=O)N1CCC(C(=O)N2CCN(c3cccc(C(F)(F)F)c3)CC2)CC1` [compound 125] it is “+ (“+” stands for 50-80% inhibition)”; for `COc1nc(OC)nc(N2CCN(C(=O)c3csc(C4CCN(C(=O)Cc5ccc(F)cc5)CC4)n3)CC2)n1` [compound 126] it is “+ (“+” stands for 50-80% inhibition)”. In the case of `COc1nc(OC)nc(N2CCN(C(=O)c3csc(C4CCN(C(=O)c5ccccc5OC(F)(F)F)CC4)n3)CC2)n1` [compound 127], the “Biological activity (inhibition in the NF-κB inflammation assay)” value is recorded as “+ (“+” stands for 50-80% inhibition)”. The entry for `Cc1sc(C2CCN(C(=O)c3ccccc3OC(F)(F)F)CC2)nc1CC(=O)N1CCN(c2cccc(Cl)c2)CC1` [compound 128] is “+++ (“+++” stands for 90-100% inhibition)”; for `O=C(c1csc(C2CCN(C(=O)c3ccccc3OC(F)(F)F)CC2)n1)N1CCN(c2ncnc3nc[nH]c23)CC1` [compound 129] it is “+ (“+” stands for 50-80% inhibition)”. The entry for `COc1cc(N2CCN(C(=O)c3csc(C4CCN(C(=O)c5ccccc5OC(F)(F)F)CC4)n3)CC2)nc(OC)n1` [compound 130] is “+ (“+” stands for 50-80% inhibition)”; for `Cc1cc2nc(NC(=O)c3csc(C4CCN(C(=O)Cc5ccc(F)cc5)CC4)n3)[nH]c2cc1C` [compound 131] it is “+ (“+” stands for 50-80% inhibition)”. Turning to `Cc1cc2nc(NC(=O)c3csc(C4CCN(C(=O)c5cc(-c6ccc(Cl)cc6)oc5C(F)(F)F)CC4)n3)[nH]c2cc1C` [compound 132], the “Biological activity (inhibition in the NF-κB inflammation assay)” value is “+ (“+” stands for 50-80% inhibition)”.
